Data reported in patent publication US20220143021A1 (Cardiff Oncology, Inc., priority 2019, published 2022).
Values joined by “and” are separate entries in the source; they are usually repeats but may differ in a detail not shown here. Equal values may be shown once.

Key:
[1] = tested on: human prostate tissues; settings: Hennenberg et al., 2018; cited from earlier work
[2] = tested on: human prostate tissues; test: organ bath, phenylephrine-induced contractions of human prostate strips
Protocol: (§1) Human prostate tissues were obtained from patients undergoing radical prostatectomy for prostate cancer (n=107). Patients who underwent previous transurethral resection of the prostate (TURP) were excluded. This study was carried out in accordance with the Declaration of Helsinki of the World Medical Association, and has been approved by the ethics committee of the Ludwig-Maximilians University, Munich, Germany (Ethikkommission bei der LMU Munchen, approval number 19-737). Informed consent was obtained from all patients. According to the ethical approval, samples and data were collected and analyzed anonymously, so that no data on patients' characteristics were stored. […]
(§2) Prostate strips (6×3×3 mm) were mounted in 10 ml aerated (95% 02 and 5% CO2) tissue baths (Danish Myotechnology, Aarhus, Denmark), containing Krebs-Henseleit solution (37° C., pH 7.4) with following composition: 118 mM NaCl, 4.7 mM KCl, 2.55 mM CaCl2), 1.2 mM KH2PO4, 1.2 mM MgSO4, 25 mM NaHCO3, 7.5 mM glucose. […] Only one curve was recorded with each sample, i. e. for one agonist, or for electric field stimulation (EFS).
(§3) After mounting in organ bath chambers, preparations were stretched to 4.9 mN and left to equilibrate for 45 min. […] After the equilibration period, maximum contraction induced by 80 mM KCl was assessed. […]

[3] = tested on: CK2; settings: Valsasina et al., 2012; cited from earlier work
[4] = tested on: human prostate tissues; test: organ bath, ATP-induced contractions of human prostate strips; settings: read-out: inhibition of ATP-induced contraction
Protocol: as §1, §2, §3

[5] = tested on: human prostate tissues; test: organ bath, noradrenaline-induced contractions of human prostate strips
Protocol: Human prostate tissues were obtained from patients undergoing radical prostatectomy for prostate cancer (n=107). Patients who underwent previous transurethral resection of the prostate (TURP) were excluded. This study was carried out in accordance with the Declaration of Helsinki of the World Medical Association, and has been approved by the ethics committee of the Ludwig-Maximilians University, Munich, Germany (Ethikkommission bei der LMU Munchen, approval number 19-737). Informed consent was obtained from all patients. According to the ethical approval, samples and data were collected and analyzed anonymously, so that no data on patients' characteristics were stored. Samples were taken immediately after prostatectomy, following macroscopical examination by an uro-pathologist. All tissues were taken from the periurethral zone, considering that most prostate cancers arise in the peripheral zone (Pradidarcheep et al., 2011; Shaikhibrahim et al., 2012). […] BPH is present in 80-83% of patients with prostate cancer (Alcaraz et al., 2009; Orsted and Bojesen, 2013). Typically, such tissues show varying content of prostate-specific antigen (PSA), and different contents of smooth muscle and glandular epithelia, reflecting that BPH is present to different degree (Wang et al., 2016a, 2016c). For macroscopic examination and sampling, the prostate was opened by a single longitudinal cut from the capsule to the urethra. Subsequently, both intersections were checked macroscopically for any obvious tumor infiltration. Because tumors are usually located to the peripheral zone, tumor infiltration in the periurethral zone (where sampling was performed) was very rare (found in less than 1% of prostates). Prostates showing tumors in the periurethral zone in macroscopic inspection were not subjected to sampling and were not included in this study. Organ bath studies were performed immediately after sampling, while samples for molecular analyses were shock frozen in liquid nitrogen and stored at −80° C.
Prostate strips (6×3×3 mm) were mounted in 10 ml aerated (95% 02 and 5% CO2) tissue baths (Danish Myotechnology, Aarhus, Denmark), containing Krebs-Henseleit solution (37° C., pH 7.4) with following composition: 118 mM NaCl, 4.7 mM KCl, 2.55 mM CaCl2), 1.2 mM KH2PO4, 1.2 mM MgSO4, 25 mM NaHCO3, 7.5 mM glucose. In each single experiment, two from four strips obtained from the same prostate were allocated to the control group (without inhibitor or antagonist), and two others to the inhibitor/antagonist group (resulting in duplicate determination for each group in each single experiment). All four samples of one experiment were examined in four chambers of the same organ bath. Consequently, control and inhibitor curves in each series/diagram were obtained from the same prostates, but different prostates were examined for different series/diagrams. […] Only one curve was recorded with each sample, i. e. for one agonist, or for electric field stimulation (EFS).
as §3

[6] = in vivo; cited from earlier work
[7] = tested on: human prostate tissues; test: organ bath, endothelin-1-induced contractions of human prostate strips; settings: read-out: inhibition of endothelin-1-induced contraction
Protocol: as §1, §2, §3

[8] = humans, phase I, even by the lowest dosages tested (Weiss et al., 2018); cited from earlier work
[9] = tested on: WPMY-1 cells; test: EdU proliferation assay; assay type: cell-based, human; settings: 24 h
Protocol: (§4) WPMY-1 cells are an immortalized cell line obtained from human prostate stroma without prostate cancer (Webber et al., 1999). Cells were obtained from American Type Culture Collection (ATCC; Manassas, Va., USA), and kept in RPMI 1640 (Gibco, Carlsbad, Calif., USA) supplemented with 10% fetal calf serum (FCS) and 1% penicillin/streptomycin at 37° C. with 5% CO2. Before addition of onvansertib or DMSO, the medium was changed to a FCS-free medium. For Western blot analysis, cells were lyzed using radioimmunoprecipitation assay (RIPA) buffer (Sigma-Aldrich, St. Louis, Mo., USA), and removed from flasks after 15 min of incubation on ice. Cell debris was removed by centrifugation (10,000 g, 10 min, 4° C.), and different aliquots of supernatants were either subjected to protein determination, or boiled with SDS sample buffer.
WPMY-1 cells were plated with cell line-specific densities (50,000/well) on 16-well chambered coverslips (Thermo Scientific, Waltham, Mass., USA). […] 20 h later, cells were fixed with 3.7% formaldehyde. EdU incorporation was determined using the “EdU-Click 555” cell proliferation assay (Baseclick, Tutzing, Germany) according to the manufacturer's instructions. In this assay, incorporation of EdU into DNA is assessed by detection with fluorescing 5-carboxytetramethylrhodamine (5-TAMRA). Counterstaining of all nuclei was performed with DAPI. Cells were analyzed by fluorescence microscopy (excitation: 546 nm; emission: […]).

[10] = tested on: WPMY-1 cells; test: plate colony formation assay; assay type: cell-based, human; settings: 14 days
Protocol: as §4
Cells were incubated at 37° C. for 14 days, then washed twice with PBS, and fixed by 2 ml of 10% trichloroacetic acid overnight (4° C.). Subsequently, all plates were washed five times with cold water, and stained with 0.4% sulforhodamine B solution (diluted in 1% acetic acid) at room temperature for 30 min. Before taking photos, all plates were labeled and washed five times with 1% acetic acid. The number of colonies containing 50 cells or more was counted under a microscope.

[11] = tested on: human prostate tissues; test: organ bath, methoxamine-induced contractions of human prostate strips
Protocol: as §1, §2, §3

[12] = CCK-8 viability (cytotoxicity) assay; assay type: cell-based; settings: human, WPMY-1 cells (immortalized prostate stromal cells), read-out: decrease of viability
Protocol: as §4
Viability of cells was assessed using the Cell Counting Kit-8 (CCK-8) (Sigma-Aldrich, St. Louis, Mo., USA). […] Subsequently, cells were grown for different periods (24, 48, 72 h). Separate controls were performed for each period. At the end of this period, 10 μl of [2-(2-methoxy-4-nitrophenyl)-3-(4-nitrophenyl)-5-(2,4-disulfophenyl)-2H-tetrazolium monosodium salt (WST-8) from CCK-8 was added, and absorbance in each well was measured at 450 nm after incubation for 2 h at 37° C.

[13] = tested on: human prostate tissues; test: organ bath, U46619-induced contractions of human prostate strips; settings: 100 nM onvansertib
Protocol: as §1, §2, §3

[14] = tested on: 296 kinases; settings: cited from earlier work
[15] = tested on: human prostate tissues; test: organ bath, EFS-induced (neurogenic) contractions of human prostate strips
Description: Patients who underwent previous transurethral resection of the prostate (TURP) were excluded. […] Informed consent was obtained from all patients. According to the ethical approval, samples and data were collected and analyzed anonymously, so that no data on patients' characteristics were stored. Samples were taken immediately after prostatectomy, following macroscopical examination by an uro-pathologist. […] For macroscopic examination and sampling, the prostate was opened by a single longitudinal cut from the capsule to the urethra. Subsequently, both intersections were checked macroscopically for any obvious tumor infiltration. […] Prostates showing tumors in the periurethral zone in macroscopic inspection were not subjected to sampling and were not included in this study. Organ bath studies were performed immediately after sampling, while samples for molecular analyses were shock frozen in liquid nitrogen and stored at −80° C.
In each single experiment, two from four strips obtained from the same prostate were allocated to the control group (without inhibitor or antagonist), and two others to the inhibitor/antagonist group (resulting in duplicate determination for each group in each single experiment). All four samples of one experiment were examined in four chambers of the same organ bath. Consequently, control and inhibitor curves in each series/diagram were obtained from the same prostates, but different prostates were examined for different series/diagrams. […] Therefore, and considering that prostate tissues from radical prostatectomy may show considerable heterogeneity, statistical comparisons were only performed between groups within the same series (i. e. containing tissues from the same prostates for inhibitor and control group), but not between series obtained from different prostates (i. e., not across different series of organ bath experiments). Only one curve was recorded with each sample, i. e. for one agonist, or for electric field stimulation (EFS).
Subsequently, chambers were washed three times with Krebs-Henseleit solution for a total of 30 min.
Application of EFS simulates action potentials, resulting in the release of endogenous neurotransmitters, including noradrenaline. […] For EFS, tissue strips were placed between two parallel platinum electrodes connected to a CS4 stimulator (Danish Myotechnology). […] EFS-induced contractile responses were studied at frequencies of 2, 4, 8, 16, and 32 Hz, with train intervals of 30 s between stimulations.
Data analyses and calculations were based on maximum peak heights of contractions. For calculation of agonist- or EFS-induced contractions, tensions were expressed as % of KCl-induced contractions, as this may correct different stromal/epithelial ratios, different smooth muscle content, varying degree of BPH, or any other heterogeneity between prostate samples and patients.

[16] = washout of onvansertib (100 nM) for 30 min

## COc1ccc(CCNCc2ccc(OCc3ccc(Cl)nc3)c(OC)c2)cc1OC [SBE 13]
[1]
  effect on endothelin-1-induced contractions of human prostate tissues: did not change

## NC(=O)c1sc2c([N+](=O)[O-])cc(C(F)(F)F)cc2[n+]1[O-] [cyclapolin]
[1]
  effect on endothelin-1-induced contractions of human prostate tissues: did not change

## CN1CCN(c2ccc(OC(F)(F)F)c(Nc3ncc4c(n3)-c3c(c(C(N)=O)nn3CCO)CC4)c2)CC1 [onvansertib, 1-(2-hydroxyethyl)-8-{[5-(4-methylpiperazin-1-yl)-2-(trifluoromethoxy)phenyl]amino}-4,5-dihydro-1H-pyrazolo[4,3-h] quinazoline-3-carboxamide]
[2]
  inhibition at 0.1 µM: 47 ± 16.2%
[3]
  IC50: 826 nM
[4]
  inhibition at 0.1 µM: 51 ± 18.6%
[5]; Homo sapiens
  inhibition at 0.1 µM: 45 ± 9.7%
  inhibition at 1 µM: 41 ± 6.2%
[5]; [16]
  noradrenaline-induced contractions after washout versus DMSO: did not differ
[6]
  oral bioavailability: good oral bioavailability
[7]
  inhibition at 0.1 µM: 45 ± 6.6%
[8]
  plasma concentrations: three-digit nanomolar range
[9]; 10 nM
  decrease of percentage of proliferating cells: 18±0.1%
[9]; 50 nM
  decrease of percentage of proliferating cells: 24±2.1%
[9]; 100 nM
  decrease of percentage of proliferating cells: 35±2.0%
[10]; 10 nM
  decrease of colony formation: 39±4.5%
[10]; 50 nM
  decrease of colony formation: 89±1.9%
[10]; 100 nM
  decrease of colony formation: 97±0.4%
[11]
  inhibition at 0.1 µM: 43 ± 19.4%
[12]; 10 nM, 24 h
  cytotoxicity at 24 h, 10 nM: 15 ± 8.8%
[12]; 10 nM, 48 h
  cytotoxicity at 48 h, 10 nM: 28 ± 8.3%
[12]; 10 nM, 72 h
  cytotoxicity at 72 h, 10 nM: 40 ± 4.4%
[12]; 100 nM, 24 h
  cytotoxicity at 24 h, 100 nM: 63 ± 2.2%
[12]; 100 nM, 48 h
  cytotoxicity at 48 h, 100 nM: 86 ± 1.9%
[12]; 100 nM, 72 h
  cytotoxicity at 72 h, 100 nM: 89 ± 1.4%
[13]
  effect on U46619-induced contractions: did not change
[14]; tested at 100 nM against 296 kinases
  kinases inhibited: inhibition only of PLK1
[14]; tested at 1 μM against 296 kinases, including PLK1
  number of kinases with decreases in activities (<50%): 11
[15]; 32 Hz, onvansertib 100 nM combined with silodosin 100 nM
  inhibition of EFS-induced contraction by add-on of onvansertib, compared to silodosin alone: 61% and 61±9.8%
[15]; 32 Hz, onvansertib 100 nM combined with tamsulosin 300 nM
  inhibition of EFS-induced contraction by add-on of onvansertib, compared to tamsulosin alone: 59% and 59±11.5%
[15]; Homo sapiens
  inhibition at 0.1 µM: 34%
  inhibition at 1 µM: 34%
[15]; [16]
  EFS-induced contractions after washout versus DMSO: did not differ

## C[C@H](Cc1cc2c(c(C(N)=O)c1)N(CCCO)CC2)NCCOc1ccccc1OCC(F)(F)F [silodosin, 1-(3-hydroxypropyl)-5-[(2 R)-2-[2-[2-(2,2,2-trifluoroethoxy)phenoxy]ethylamino]propyl]-2,3-dihydroindole-7-carboxamide, reference compound]
[5]; Homo sapiens, 100 μM noradrenaline, 100 nM silodosin
  inhibition at 0.1 µM: 84 ± 4.99%
[15]; 32 Hz, silodosin 100 nM combined with onvansertib 100 nM
  inhibition of EFS-induced contraction by add-on of silodosin, compared to onvansertib alone: 68% and 68±12.7%
[15]; Homo sapiens, 32 Hz, 100 nM silodosin
  inhibition at 0.1 µM: 47%

## CCOc1ccccc1OCCN[C@H](C)Cc1ccc(OC)c(S(N)(=O)=O)c1 [tamsulosin, 5-[(2 R)-2-[2-(2-ethoxyphenoxy)ethylamino]propyl]-2-methoxybenzenesulfonamide, reference compound]
[5]; Homo sapiens, 100 μM noradrenaline, 300 nM tamsulosin
  inhibition at 0.3 µM: 93 ± 3.5%
[15]; 32 Hz, tamsulosin 300 nM combined with onvansertib 100 nM
  inhibition of EFS-induced contraction by add-on of tamsulosin, compared to onvansertib alone: 68% and 68±12.2%
[15]; Homo sapiens, 32 Hz, 300 nM tamsulosin
  inhibition at 0.3 µM: 48%
